# Laboratory results from PMC6994103 (PLoS Neglected Tropical Diseases, 2020).
# Several values for one entry are separate records, joined by “and”; a condition that tells them apart may be missing. Equal values may be shown once.
# Legend:
# [1] = test system: T. cruzi epimastigotes Dm28c strain; assay: Trypanocidal activity in epimastigotes, Dm28c strain; type: cell-based, Trypanosoma cruzi
# Description: (§1) VERO cells (5 x10^4 per well) were infected with trypomastigotes (2.5 ×10^5 per well) for 4 h. After this period, the infected cells were washed twice with phosphate-buffered saline (PBS), the MEM medium was replaced, and the cells were kept in culture at 37°C, 5% CO2. In order to obtain intracellular amastigotes, the cells were lysed 4 days after infection using a cell scraper, collected, washed twice with PBS (or MEM) and counted using a hemocytometer. Trypomastigotes were obtained from infected VERO cells as previously described.
# Epimastigotes of T. cruzi were cultured as described above, in 24-wells plate at a start density of 0.5 x10^7 cells/mL in BHT medium. Parasites´ growth was evaluated at different concentrations of BZL, CV and CV structural analogues, and parasite proliferation was determined after 48 h. Trypanocidal activity in trypomastigotes and amastigotes was performed using 1 x10^6 cells/mL in 96-well plates and incubating at 37°C for 24 h in the presence of the corresponding drug. Growth was determined by counting in a Neubauer chamber and viability assays by using “Cell Titer 96 Aqueous One Solution Cell Proliferation Assay (MTS)” (Promega, Madison, WI, USA) according to the manufacturer’s instructions. Amastigotes were fixed with methanol, stained and mounted with Vectashield with DAPI (Vector Laboratories, Burlingame, CA, USA), and then the non-lysed cells were counted by using fluorescence microscopy.
# [2] = test system: T. cruzi trypomastigotes Y strain; assay: Synergism BZL with LTD-CPH-CFZ in trypomastigotes, Y strain (CompuSyn); type: cell-based, Trypanosoma cruzi
# Description: Parasites´ growth was evaluated at different concentrations of BZL, CV and CV structural analogues, and parasite proliferation was determined after 48 h. […] Growth was determined by counting in a Neubauer chamber and viability assays by using “Cell Titer 96 Aqueous One Solution Cell Proliferation Assay (MTS)” (Promega, Madison, WI, USA) according to the manufacturer’s instructions. Amastigotes were fixed with methanol, stained and mounted with Vectashield with DAPI (Vector Laboratories, Burlingame, CA, USA), and then the non-lysed cells were counted by using fluorescence microscopy. Calculations were performed using CompuSyn software (http://combosyn.com) which is based on the median-effect equation [48] and its extension, the combination index.
# VERO cells = assay: Toxicity assay in VERO cells (gentian violet staining); type: cell-based, African green monkey; conditions: IC50 in VERO cells / IC50 in trypomastigotes (Y strain)
# Description: (§2) VERO cells (African green monkey Kidney, ATCC CCL-81) were cultured in MEM medium supplemented with 10% heat inactivated FCS, 0.15% (w/v) NaHCO3, 100 U/mL penicillin and 100 U/mL streptomycin at 37°C in 5% CO2.
# (§3) The toxicity of the compounds was determined in VERO cells by the gentian violet staining assay. Briefly, the cells (1 x10^4 cells/well) were incubated in 96-well plates with the indicated compound or dimethyl sulfoxide (DMSO) as negative control and maintained at 37° C for 24 h. Then the cells were fixed for 15 min, and stained with 0.5% gentian violet. The absorbance was measured at 570 nm. The selectivity index (SI) was calculated for each CV analogue as the ratio between the IC50 obtained in mammalian cells and the IC50 in trypomastigotes. For the combined treatment, the results were presented as percentage of untreated cells.
# [3] = as above; type: cell-based, African green monkey; conditions: African green monkey, VERO cells, 24 h, read-out: viability of the VERO cells, percentage of untreated cells
# Description: as §2, §3
# [4] = test system: T. cruzi epimastigotes CL Brener strain; assay: Trypanocidal activity in epimastigotes, CL Brener strain; type: cell-based, Trypanosoma cruzi; conditions: Y vs CL Brener
# Description: as §1
# Epimastigotes of T. cruzi were cultured as described above, in 24-wells plate at a start density of 0.5 x10^7 cells/mL in BHT medium. Parasites´ growth was evaluated at different concentrations of BZL, CV and CV structural analogues, and parasite proliferation was determined after 48 h. […] Growth was determined by counting in a Neubauer chamber and viability assays by using “Cell Titer 96 Aqueous One Solution Cell Proliferation Assay (MTS)” (Promega, Madison, WI, USA) according to the manufacturer’s instructions. Amastigotes were fixed with methanol, stained and mounted with Vectashield with DAPI (Vector Laboratories, Burlingame, CA, USA), and then the non-lysed cells were counted by using fluorescence microscopy.
structure (smiles),measurement,setting,value
O=C(Cn1ccnc1[N+](=O)[O-])NCc1ccccc1 [Benznidazole],fold more resistant Dm28c vs CL Brener epimastigotes,[1]; Dm28c vs CL Brener,1.2 fold
same,fold more sensitive Y vs Dm28c epimastigotes,[1]; Y vs Dm28c,1.6 fold
same,DRI BZL,[2]; BZL 0.50 µM + LTD-CPH-CFZ 3.00 µM (1/10 IC50),3.60 ± 0.06
same,DRI BZL,[2]; BZL 0.50 µM + LTD-CPH-CFZ 6.00 µM (1/5 IC50),9.19 ± 1.16
same,DRI BZL,[2]; BZL 0.50 µM + LTD-CPH-CFZ 7.50 µM (1/4 IC50),22.88 ± 3.02
same,DRI BZL,[2]; BZL 0.50 µM + LTD-CPH-CFZ 10.00 µM (1/3 IC50),94.41 ± 15.96
same,DRI BZL,[2]; BZL 1.00 µM + LTD-CPH-CFZ 3.00 µM (1/10 IC50),5.34 ± 0.30
same,DRI BZL,[2]; BZL 1.00 µM + LTD-CPH-CFZ 6.00 µM (1/5 IC50),12.08 ± 1.16
same,DRI BZL,"[2]; BZL 1.00 µM + LTD-CPH-CFZ 7.50 µM (1/4 IC50), listed as BZL",27 and 27.38 ± 2.15
same,DRI BZL,[2]; BZL 1.00 µM + LTD-CPH-CFZ 10.00 µM (1/3 IC50),95.04 ± 0.83
same,DRI BZL,[2]; BZL 5.00 µM + LTD-CPH-CFZ 3.00 µM (1/10 IC50),2.88 ± 0.54
same,DRI BZL,[2]; BZL 5.00 µM + LTD-CPH-CFZ 6.00 µM (1/5 IC50),7.17 ± 1.62
same,DRI BZL,[2]; BZL 5.00 µM + LTD-CPH-CFZ 7.50 µM (1/4 IC50),14.85 ± 6.05
same,DRI BZL,[2]; BZL 5.00 µM + LTD-CPH-CFZ 10.00 µM (1/3 IC50),32.44 ± 3.71
same,DRI BZL,[2]; BZL 10.00 µM + LTD-CPH-CFZ 3.00 µM (1/10 IC50),1.46 ± 0.23
same,DRI BZL,[2]; BZL 10.00 µM + LTD-CPH-CFZ 6.00 µM (1/5 IC50),6.02 ± 1.15
same,DRI BZL,[2]; BZL 10.00 µM + LTD-CPH-CFZ 7.50 µM (1/4 IC50),33.28 ± 1.72
same,DRI BZL,[2]; BZL 10.00 µM + LTD-CPH-CFZ 10.00 µM (1/3 IC50),35.17 ± 4.38
same,Dose BZL alone,[2]; same effect (Fa 0.226) as BZL 0.50 µM + LTD-CPH-CFZ 3.00 µM,1.80 ± 0.03 µM
same,Dose BZL alone,[2]; same effect (Fa 0.417) as BZL 0.50 µM + LTD-CPH-CFZ 6.00 µM,4.60 ± 0.58 µM
same,Dose BZL alone,[2]; same effect (Fa 0.452) as BZL 1.00 µM + LTD-CPH-CFZ 3.00 µM,5.34 ± 0.30 µM
same,Dose BZL alone,[2]; same effect (Fa 0.631) as BZL 0.50 µM + LTD-CPH-CFZ 7.50 µM,11.44 ± 1.51 µM
same,Dose BZL alone,[2]; same effect (Fa 0.643) as BZL 1.00 µM + LTD-CPH-CFZ 6.00 µM,12.08 ± 1.16 µM
same,Dose BZL alone,[2]; same effect (Fa 0.679) as BZL 5.00 µM + LTD-CPH-CFZ 3.00 µM,14.42 ± 2.70 µM
same,Dose BZL alone,[2]; same effect (Fa 0.702) as BZL 10.00 µM + LTD-CPH-CFZ 3.00 µM,14.56 ± 2.33 µM
same,Dose BZL alone,[2]; same effect (Fa 0.798) as BZL 1.00 µM + LTD-CPH-CFZ 7.50 µM,27.38 ± 2.15 µM
same,Dose BZL alone,[2]; same effect (Fa 0.833) as BZL 5.00 µM + LTD-CPH-CFZ 6.00 µM,35.83 ± 8.10 µM
same,Dose BZL alone,[2]; same effect (Fa 0.869) as BZL 0.50 µM + LTD-CPH-CFZ 10.00 µM,47.21 ± 7.98 µM
same,Dose BZL alone,[2]; same effect (Fa 0.893) as BZL 10.00 µM + LTD-CPH-CFZ 6.00 µM,60.21 ± 11.50 µM
same,Dose BZL alone,[2]; same effect (Fa 0.905) as BZL 5.00 µM + LTD-CPH-CFZ 7.50 µM,74.24 ± 30.25 µM
same,Dose BZL alone,[2]; same effect (Fa 0.929) as BZL 1.00 µM + LTD-CPH-CFZ 10.00 µM,95.04 ± 0.83 µM
same,Dose BZL alone,[2]; same effect (Fa 0.976) as BZL 5.00 µM + LTD-CPH-CFZ 10.00 µM,162.18 ± 18.57 µM
same,Dose BZL alone,[2]; same effect (Fa 0.988) as BZL 10.00 µM + LTD-CPH-CFZ 7.50 µM,332.83 ± 17.17 µM
same,Dose BZL alone,[2]; same effect (Fa 0.988) as BZL 10.00 µM + LTD-CPH-CFZ 10.00 µM,351.76 ± 43.93 µM
same,Selectivity Index,VERO cells,>67
same,"viability at 24 h, 5 µM",[3]; BZL 5.0 µM + LTD-CPH-CFZ 0 µM,96.6%
same,"viability at 24 h, 10 µM",[3]; BZL 10.0 µM + LTD-CPH-CFZ 0 µM,97.5%
same,"viability at 24 h, 50 µM",[3]; BZL 50.0 µM + LTD-CPH-CFZ 0 µM,95.7%
same,"viability at 24 h, 100 µM",[3]; BZL 100.0 µM + LTD-CPH-CFZ 0 µM,92.9%
same,fold more sensitive Y vs CL Brener epimastigotes,[4],1.3 fold
